Experimental findings from paper PMC4990177, “ABCB1 Overexpression Is a Key Initiator of Resistance to Tyrosine Kinase Inhibitors in CML Cell Lines” (PLoS ONE, 2016) are described below.

The test system of test [1] is K562 cells. Put plainly: Cell viability assay, Annexin V/7-AAD, 72 h, K562 cells.
Experimental: (§1) Cells were washed and resuspended in fresh culture media before culture in 24-well plates (Thermo Fisher Scientific, Waltham, MA, USA) in the presence of TKI at a density of 2×10^5 cells/mL. Plates were seeded with 1 mL of cell suspension in triplicate, placed in sterilised containers and incubated for 72 h before cell viability determination with 7-aminoactinomycin D (7-AAD; Invitrogen Life Technologies, Carlsbad, CA, USA) and Phycoerythrin (PE)-conjugated Annexin V antibody (BD Biosciences, Franklin Lakes, NJ, USA). Flow cytometric analysis was conducted with an FC500 flow cytometer (Beckman Coulter, Miami, FL, USA) and FCS Express 4 software (De Novo Software, Los Angeles, CA, USA).
Error bars represent SEM.
The test system of test [2] is K562-Dox cells. Briefly: Cell viability assay, Annexin V/7-AAD, 72 h, K562-Dox cells.
Experimental: as §1
Error bars represent SEM.
Test [3] relates to K562 cells. Put plainly: % live cells during nilotinib dose escalation, K562 resistance intermediates. In kind it is cell-based.
The test system of another test is LYN mRNA. Briefly: LYN mRNA expression by RQ-PCR in nilotinib resistant K562 cells. In kind it is cell-based. Particulars: K562 #6 NIL cells and later intermediates, duration of nilotinib escalation.
For test [4], the system named is K562-Dox cells. Put plainly: % live cells during nilotinib dose escalation, K562-Dox resistance intermediates. In kind it is cell-based.

In the case of `Cc1nc(Nc2ncc(C(=O)Nc3c(C)cccc3Cl)s2)cc(N2CCN(CCO)CC2)n1` [dasatinib], the “survival (% live cells)” value in the test with K562 cells [1] (K562 #6 NIL cells, 500 nM dasatinib) is recorded as 74%; in the test on K562 cells [1] (K562 #10 NIL cells, 500 nM dasatinib), 74%; with K562 cells [1] (K562 control cells, 500 nM dasatinib) it was 21%; with K562-Dox cells [2] (K562-Dox #5 NIL cells, 100 nM dasatinib), 60%; in the test on K562-Dox cells [2] (K562-Dox control cells, 100 nM dasatinib), 5%.
With `Cc1ccc(NC(=O)c2ccc(CN3CCN(C)CC3)cc2)cc1Nc1nccc(-c2cccnc2)n1` [imatinib], the “survival (% live cells)” value in the test with K562 cells [1] (K562 #6 NIL cells, 5 μM imatinib) amounted to 92%; with K562 cells [1] (K562 #10 NIL cells, 5 μM imatinib), 89%; in the test with K562 cells [1] (K562 control cells, 5 μM imatinib) it was 29%; with K562-Dox cells [2] (K562-Dox #5 NIL cells, 5 μM imatinib), 79%; with K562-Dox cells [2] (K562-Dox control cells, 5 μM imatinib), 31%.
For the molecule `Cc1cn(-c2cc(NC(=O)c3ccc(C)c(Nc4nccc(-c5cccnc5)n4)c3)cc(C(F)(F)F)c2)cn1` [nilotinib], the “% Live Cells” value is listed as 95.0% in the test on K562 cells [3] (K562 intermediate #1, cultured in 15 nM NIL, 10 days in culture); 99.1% in the test on K562 cells [3] (K562 intermediate #2, cultured in 25 nM NIL, 11 days in culture); 96.7% in the test on K562 cells [3] (K562 intermediate #3, cultured in 50 nM NIL, 10 days in culture); 93.7% in the test on K562 cells [3] (K562 intermediate #4, cultured in 75 nM NIL, 14 days in culture); 94.6% with K562 cells [3] (K562 intermediate #5, cultured in 100 nM NIL, 12 days in culture); ~ 80% in the test with K562 cells [3] (K562 intermediate #6, cultured in 125 nM NIL, 28 days in culture (prolonged exposure)). The “% Live Cells” value amounted to 83.6% in the test on K562 cells [3] (K562 intermediate #6, cultured in 125 nM NIL, 28 days in culture (prolonged exposure), listed as NIL); 87.4% with K562 cells [3] (K562 intermediate #7, cultured in 140 nM NIL, 17 days in culture); 93.3% in the test with K562 cells [3] (K562 intermediate #8, cultured in 300 nM NIL, 12 days in culture); 90.8% in the test on K562 cells [3] (K562 intermediate #9, cultured in 400 nM NIL, 14 days in culture); 94.1% with K562 cells [3] (K562 intermediate #10, cultured in 2 μM NIL, continuous culture); 99.6% in the test with K562-Dox cells [4] (K562-Dox intermediate #1, cultured in 15 nM NIL, 11 days in culture). Besides, the “% Live Cells” value in the test on K562-Dox cells [4] (K562-Dox intermediate #2, cultured in 30 nM NIL, 10 days in culture) is listed as 96.9%; in the test on K562-Dox cells [4] (K562-Dox intermediate #3, cultured in 60 nM NIL, 11 days in culture) it was 98.5%; in the test on K562-Dox cells [4] (K562-Dox intermediate #4, cultured in 100nM NIL, 12 days in culture) it was 91.3%; in the test on K562-Dox cells [4] (K562-Dox intermediate #5, cultured in 125 nM NIL, 81 days in culture) it was 73.6%; with K562-Dox cells [4] (K562-Dox intermediate #6, cultured in 200 nM NIL, 16 days in culture), 76.6%; in the test with K562-Dox cells [4] (K562-Dox intermediate #7, cultured in 1 μM NIL, 19 days in culture) it was 75.8%. The “% Live Cells” value in the test on K562-Dox cells [4] (K562-Dox intermediate #8, cultured in 2 μM NIL, continuous culture) is given as 90.7%. In addition, the “survival (% live cells)” value in the test with K562 cells [1] (K562 #6 NIL cells, 1000 nM nilotinib) is 87%; in the test on K562 cells [1] (K562 #10 NIL cells, 1000 nM nilotinib), 85%; in the test with K562 cells [1] (K562 control cells, 1000 nM nilotinib), 19%; in the test with K562-Dox cells [2] (K562-Dox #5 NIL cells, 1000 nM nilotinib) it was 74%; in the test on K562-Dox cells [2] (K562-Dox control cells, 1000 nM nilotinib), 8%. For the same molecule, in the test on LYN mRNA, the “LYN mRNA increase compared with control cells” value is listed as 15–18 fold.
